As a reminder, the Km is the substrate concentration at which the rate is half of its maximum. Broadly, the Ki is a dissociation constant, usually derived from enzyme kinetics or from competition with a known ligand. Read a high Ki as weaker binding.

For assay [1], the target named is neuraminidase of A/New Caledonia/20/99(H1N1) (NC99) (Influenza A virus, UniProt Q7TG96). Description: biochemical. The assay is classed as biochemical.
Assay [2] has as its target neuraminidase of A(H1N1) clinical isolate 0650/04 (Influenza A virus (H1N1), UniProt B4YYP0). Briefly: biochemical.
The target of assay [3] is neuraminidase of A(H1N1) clinical isolate 1951/06 (Influenza A virus, UniProt B4URD9). It is filed as biochemical.
In assay [4] the target is neuraminidase of A(H1N1) clinical isolate 0692/07 (Influenza A virus (H1N1), UniProt A8C8J7). The assay is classed as biochemical.
Assay [5] deals with neuraminidase of A/Solomon Islands/3/2006(H1N1) (SI06) (Influenza A virus, UniProt B4URD9). The assay is classed as biochemical.
In assay [6] the target is neuraminidase of A(H1N1) clinical isolate 0286/07 (Influenza A virus (H1N1), UniProt D5F1R0). It is filed as biochemical.
Assay [7] has as its target neuraminidase of A(H1N1) clinical isolate 0497/07 (Influenza A virus (H1N1), UniProt D5F1R0). It is filed as biochemical.
The target in assay [8] is neuraminidase of A(H1N1) clinical isolate 0611/07 (Influenza A virus (H1N1), UniProt D5F1R0). It is filed as biochemical.
Assay [9] has as its target neuraminidase of A(H1N1) clinical isolate 0814/07 (Influenza A virus, UniProt D5F1R0). It is filed as biochemical.
Assay [10] addresses neuraminidase of A(H1N1) clinical isolate 0974/08 (Influenza A virus, UniProt G3LYQ1). It is filed as biochemical.
Assay [11] has as its target neuraminidase of A(H1N1) clinical isolate 1149/08 (Influenza A virus, UniProt G3LYQ1). The assay is classed as biochemical.
For assay [12], the target named is neuraminidase of the 5 pre-2007–2008 H1N1 viruses (Influenza A virus, UniProt B4URD9). It is filed as biochemical. To be noted: read-out: Mean Km, group Mean.
Assay [13] concerns the target neuraminidase of the 6 sensitive H1N1 viruses from the 2007–2008 season (Influenza A virus, UniProt D5F1R0). It is filed as biochemical. Conditions: read-out: Mean Km, group Mean.

Take `CC(=O)N[C@@H]1[C@@H](O)C[C@](Oc2ccc3c(C)cc(=O)oc3c2)(C(=O)O)O[C@H]1C(O)[C@H](O)CO` (stereo partly shown) [MUNANA]: the Michaelis-Menten constant (Km) in assay [1] turned out to be 27.4 µM; in assay [2], 25.6 µM; in assay [3] it was 29.5 µM; in assay [4], 31.5 µM; in [5], 25.1 µM; in assay [6] it was 8.5 µM. Also, the Km came to 7.5 µM in [7]; 8 µM in assay [8]; 9 µM in assay [9]; 10.4 µM in [10]; 10.4 µM in assay [11]; 28 µM in [12]. Also, in assay [13], the Km worked out at 9 ± 1.2 µM.
`CCOC(=O)C1=C[C@@H](OC(CC)CC)[C@H](NC(C)=O)[C@@H](N)C1` [OC, oseltamivir]: the figures for the Ki in assay [1] and in assay [2] were 0.19 nM and 0.2 nM, respectively.
`CC(=O)N[C@H]1[C@H]([C@H](O)[C@H](O)CO)OC(C(=O)O)=C[C@@H]1N=C(N)N` [Zana, zanamivir] yielded a Ki in assay [2] of 0.2 nM.

Source of the values: publication PMC2453323 (PLoS Pathogens, 2008).
